According to ChEMBL document CHEMBL2086254, “Synthesis and identification of novel indolo[2,3-a]pyrimido[5,4-c]carbazoles as a new class of anti-cancer agents” (Eur J Med Chem, 2012):
Calls of active or inactive are those of the source. The calls are words filed in the database; no cut-off is given here.

Tests used:
786-0 = assay: Cytotoxicity against human 786-0 cells assessed as cell growth at 10 uM after 48 hrs by SRB assay relative to control; type: functional; conditions: 786-0, 48 h, read-out: Activity
CCRF-CEM [1] = assay: Cytotoxicity in human CCRF-CEM cells after 48 hrs by SRB assay; type: functional
NCI-H226 = assay: Cytotoxicity against human NCI-H226 cells after 48 hrs by SRB assay; type: functional; conditions: NCI-H226, 48 h
BT-549 [2] = assay: Cytotoxicity against human BT549 cells assessed as cell growth at 10 uM after 48 hrs by SRB assay relative to control; type: functional; conditions: BT-549, 48 h, read-out: Activity
HT-29 [3] = assay: Cytotoxicity against human HT-29 cells after 48 hrs by SRB assay; type: functional; conditions: HT-29, 48 h
OVCAR-3 = assay: Cytotoxicity against human OVCAR3 cells assessed as cell growth at 10 uM after 48 hrs by SRB assay relative to control; type: functional; conditions: OVCAR-3, 48 h, read-out: Activity
NCI-H322M = assay: Cytotoxicity against human NCI-H322M cells assessed as cell growth at 10 uM after 48 hrs by SRB assay relative to control; type: functional; conditions: read-out: Activity
HL-60 = assay: Cytotoxicity against human HL60 cells assessed as cell growth at 10 uM after 48 hrs by SRB assay relative to control; type: functional; conditions: HL-60, 48 h, read-out: Activity
[4] = target: DNA topoisomerase 2-alpha (Homo sapiens) (UniProt P11388); assay: Inhibition of human DNA topoisomerase 2 at 100 uM after 1 hr by agarose gel circular DNA decatenation assay
DNA topoisomerase 2-alpha (Homo sapiens), sequence (P11388 whole entry): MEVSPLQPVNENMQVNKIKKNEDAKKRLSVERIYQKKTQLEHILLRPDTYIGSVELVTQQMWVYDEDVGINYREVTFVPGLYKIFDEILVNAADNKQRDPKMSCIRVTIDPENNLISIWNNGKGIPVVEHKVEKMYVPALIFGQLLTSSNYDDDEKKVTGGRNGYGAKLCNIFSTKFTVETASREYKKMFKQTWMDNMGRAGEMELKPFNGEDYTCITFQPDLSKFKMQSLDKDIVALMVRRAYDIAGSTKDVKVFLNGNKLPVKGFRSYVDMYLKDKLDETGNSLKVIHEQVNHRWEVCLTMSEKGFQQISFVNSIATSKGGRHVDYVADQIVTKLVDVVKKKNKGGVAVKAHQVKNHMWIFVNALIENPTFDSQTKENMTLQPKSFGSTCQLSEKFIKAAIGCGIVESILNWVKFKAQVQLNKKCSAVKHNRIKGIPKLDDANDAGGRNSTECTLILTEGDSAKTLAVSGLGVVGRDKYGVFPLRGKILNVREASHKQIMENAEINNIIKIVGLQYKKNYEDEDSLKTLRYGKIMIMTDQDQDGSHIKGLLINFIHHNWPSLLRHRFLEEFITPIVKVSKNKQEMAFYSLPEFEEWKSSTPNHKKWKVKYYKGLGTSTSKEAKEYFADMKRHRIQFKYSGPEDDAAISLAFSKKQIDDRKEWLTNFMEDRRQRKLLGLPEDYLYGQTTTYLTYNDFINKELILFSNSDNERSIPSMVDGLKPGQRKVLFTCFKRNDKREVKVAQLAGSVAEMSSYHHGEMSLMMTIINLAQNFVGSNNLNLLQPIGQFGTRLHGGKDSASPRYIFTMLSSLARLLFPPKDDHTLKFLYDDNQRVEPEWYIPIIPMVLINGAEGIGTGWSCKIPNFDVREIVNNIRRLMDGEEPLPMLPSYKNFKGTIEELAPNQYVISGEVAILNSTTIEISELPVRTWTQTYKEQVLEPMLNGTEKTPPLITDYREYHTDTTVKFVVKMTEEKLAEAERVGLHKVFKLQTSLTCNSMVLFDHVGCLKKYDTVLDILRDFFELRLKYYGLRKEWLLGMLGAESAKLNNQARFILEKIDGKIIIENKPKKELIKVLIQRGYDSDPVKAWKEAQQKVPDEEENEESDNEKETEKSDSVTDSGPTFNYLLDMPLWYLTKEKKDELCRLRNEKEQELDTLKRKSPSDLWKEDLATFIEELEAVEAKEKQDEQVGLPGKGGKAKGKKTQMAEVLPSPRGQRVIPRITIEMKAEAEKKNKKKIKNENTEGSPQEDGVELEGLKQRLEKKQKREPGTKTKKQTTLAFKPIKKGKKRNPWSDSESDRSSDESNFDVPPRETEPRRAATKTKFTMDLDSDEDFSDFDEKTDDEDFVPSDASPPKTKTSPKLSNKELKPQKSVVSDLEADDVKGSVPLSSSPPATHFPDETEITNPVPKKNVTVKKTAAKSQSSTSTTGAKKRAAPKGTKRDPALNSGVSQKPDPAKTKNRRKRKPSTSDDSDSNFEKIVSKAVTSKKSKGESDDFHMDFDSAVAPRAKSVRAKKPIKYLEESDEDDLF

HOP-62 = assay: Cytotoxicity against human HOP62 cells assessed as cell growth at 10 uM after 48 hrs by SRB assay relative to control; type: functional; conditions: HOP-62, 48 h, read-out: Activity
SNB-75 = assay: Cytotoxicity against human SNB75 cells assessed as cell growth at 10 uM after 48 hrs by SRB assay relative to control; type: functional; conditions: SNB-75, 48 h, read-out: Activity
MDA-MB-231 = assay: Cytotoxicity against human MDA-MB-231 cells assessed as cell growth at 10 uM after 48 hrs by SRB assay relative to control; type: functional; conditions: MDA-MB-231, 48 h, read-out: Activity
UACC-257 = assay: Cytotoxicity against human UACC257 cells assessed as cell growth at 10 uM after 48 hrs by SRB assay relative to control; type: functional; conditions: UACC-257, 48 h, read-out: Activity
NCI-H23 = assay: Cytotoxicity against human NCI-H23 cells assessed as cell growth at 10 uM after 48 hrs by SRB assay relative to control; type: functional; conditions: NCI-H23, 48 h, read-out: Activity
RXF 393 = assay: Cytotoxicity against human RXF393 cells assessed as cell growth at 10 uM after 48 hrs by SRB assay relative to control; type: functional; conditions: RXF 393, 48 h, read-out: Activity
Malme-3M = assay: Cytotoxicity against human MALME-3M cells assessed as cell growth at 10 uM after 48 hrs by SRB assay relative to control; type: functional; conditions: read-out: Activity
MOLT-4 = assay: Cytotoxicity against human MOLT4 cells assessed as cell growth at 10 uM after 48 hrs by SRB assay relative to control; type: functional; conditions: MOLT-4, 48 h, read-out: Activity
SK-MEL-2 = assay: Cytotoxicity against human SK-MEL-2 cells after 48 hrs by SRB assay; type: functional; conditions: SK-MEL-2, 48 h
SW-620 = assay: Cytotoxicity against human SW620 cells after 48 hrs by SRB assay; type: functional; conditions: SW-620, 48 h
SR [5] = assay: Cytotoxicity against human SR cells after 48 hrs by SRB assay; type: functional
HCC 2998 = assay: Cytotoxicity against human HCC2998 cells assessed as cell growth at 10 uM after 48 hrs by SRB assay relative to control; type: functional; conditions: HCC 2998, 48 h, read-out: Activity
[6] = Cytotoxicity against human breast cancer cell after 48 hrs by SRB assay; type: functional; conditions: Cancer cell lines
SR [7] = assay: Cytotoxicity against human SR cells assessed as cell growth at 10 uM after 48 hrs by SRB assay relative to control; type: functional; conditions: read-out: Activity
MCF7 = assay: Cytotoxicity against human MCF7 cells assessed as cell growth at 10 uM after 48 hrs by SRB assay relative to control; type: functional; conditions: MCF7, 48 h, read-out: Activity
BT-549 [8] = assay: Cytotoxicity against human BT549 cells after 48 hrs by SRB assay; type: functional; conditions: BT-549, 48 h
M14 = assay: Cytotoxicity against human M14 cells after 48 hrs by SRB assay; type: functional; conditions: M14, 48 h
NCI-H522 = assay: Cytotoxicity against human NCI-H522 cells assessed as cell growth at 10 uM after 48 hrs by SRB assay relative to control; type: functional; conditions: NCI-H522, 48 h, read-out: Activity
SF-295 = assay: Cytotoxicity against human SF295 cells assessed as cell growth at 10 uM after 48 hrs by SRB assay relative to control; type: functional; conditions: SF-295, 48 h, read-out: Activity
OVCAR-4 [9] = assay: Cytotoxicity against human OVCAR4 cells after 48 hrs by SRB assay; type: functional; conditions: OVCAR-4, 48 h
CCRF-CEM [10] = assay: Cytotoxicity against human CCRF-CEM cells assessed as cell growth at 10 uM after 48 hrs by SRB assay relative to control; type: functional; conditions: read-out: Activity
COLO 205 = assay: Cytotoxicity against human COLO205 cells assessed as cell growth at 10 uM after 48 hrs by SRB assay relative to control; type: functional; conditions: COLO 205, 48 h, read-out: Activity
HT-29 [11] = assay: Cytotoxicity against human HT-29 cells assessed as cell growth at 10 uM after 48 hrs by SRB assay relative to control; type: functional; conditions: HT-29, 48 h, read-out: Activity
SN12C = assay: Cytotoxicity against human SN12C cells assessed as cell growth at 10 uM after 48 hrs by SRB assay relative to control; type: functional; conditions: read-out: Activity
OVCAR-4 [12] = assay: Cytotoxicity against human OVCAR4 cells assessed as cell growth at 10 uM after 48 hrs by SRB assay relative to control; type: functional; conditions: OVCAR-4, 48 h, read-out: Activity
OVCAR-5 = assay: Cytotoxicity against human OVCAR5 cells assessed as cell growth at 10 uM after 48 hrs by SRB assay relative to control; type: functional; conditions: OVCAR-5, 48 h, read-out: Activity
[13] = read-out: LC50 (the source's name)

Structure (SMILES): Cn1c2ccccc2c2c3nc(N)[nH]c(=O)c3c3c4ccccc4n(C)c3c21
- growth at 10 µM (786-0): 62.3%
- GI50 (CCRF-CEM [1]): 3.41 µM
- TGI (CCRF-CEM [1]): > 100 µM
- CC50 (CCRF-CEM [1]; [13]): > 100 µM
- GI50 (NCI-H226): 30.6 µM
- TGI (NCI-H226): > 100 µM
- CC50 (NCI-H226; [13]): > 100 µM
- growth at 10 µM (BT-549 [2]): 76.6%
- GI50 (HT-29 [3]): 3.98 µM
- TGI (HT-29 [3]): 66.1 µM
- CC50 (HT-29 [3]; [13]): > 100 µM
- growth at 10 µM (OVCAR-3): 82.9%
- growth at 10 µM (NCI-H322M): 32.9%
- growth at 10 µM (HL-60): 34.3%
- inhibition [4]: inactive
- growth at 10 µM (HOP-62): 95.2%
- growth at 10 µM (SNB-75): 96.8%
- growth at 10 µM (MDA-MB-231): 103%
- growth at 10 µM (UACC-257): 79.7%
- growth at 10 µM (NCI-H23): 65.4%
- growth at 10 µM (RXF 393): 94%
- growth at 10 µM (Malme-3M): 36.2%
- growth at 10 µM (MOLT-4): 53.3%
- GI50 (SK-MEL-2): 1.9 µM
- TGI (SK-MEL-2): 7.59 µM
- CC50 (SK-MEL-2; [13]): 76.5 µM
- GI50 (SW-620): 4.05 µM
- TGI (SW-620): > 100 µM
- CC50 (SW-620; [13]): > 100 µM
- GI50 (SR [5]): 4.61 µM
- TGI (SR [5]): 41.8 µM
- CC50 (SR [5]; [13]): > 100 µM
- growth at 10 µM (HCC 2998): 60.9%
- GI50 [6]: 2.13 µM
- TGI [6]: 44.1 µM
- CC50 [6, 13]: > 100 µM
- growth at 10 µM (SR [7]): 64%
- growth at 10 µM (MCF7): 25%
- GI50 (BT-549 [8]): 16.3 µM
- TGI (BT-549 [8]): > 100 µM
- CC50 (BT-549 [8]; [13]): > 100 µM
- GI50 (M14): 3.36 µM
- TGI (M14): 89.6 µM
- CC50 (M14; [13]): > 100 µM
- growth at 10 µM (NCI-H522): 46.1%
- growth at 10 µM (SF-295): 86.6%
- GI50 (OVCAR-4 [9]): 16.8 µM
- TGI (OVCAR-4 [9]): > 100 µM
- CC50 (OVCAR-4 [9]; [13]): > 100 µM
- growth at 10 µM (CCRF-CEM [10]): 35.2%
- growth at 10 µM (COLO 205): 67.9%
- growth at 10 µM (HT-29 [11]): 17.6%
- growth at 10 µM (SN12C): 61.4%

Structure (SMILES): Cn1cc(-c2[nH]c(=S)[nH]c(=O)c2-c2cn(C)c3ccccc23)c2ccccc21
- growth at 10 µM (786-0): 107%
- growth at 10 µM (BT-549 [2]): 102%
- growth at 10 µM (OVCAR-3): 98.7%
- growth at 10 µM (NCI-H322M): 96.5%
- growth at 10 µM (HL-60): 104%
- inhibition [4]: inactive
- growth at 10 µM (HOP-62): 92.3%
- growth at 10 µM (SNB-75): 85.7%
- growth at 10 µM (MDA-MB-231): 91.7%
- growth at 10 µM (UACC-257): 94.2%
- growth at 10 µM (NCI-H23): 94.2%
- growth at 10 µM (RXF 393): 123%
- growth at 10 µM (Malme-3M): 99.5%
- growth at 10 µM (MOLT-4): 103%
- growth at 10 µM (HCC 2998): 113%
- growth at 10 µM (SR [7]): 93.9%
- growth at 10 µM (MCF7): 68.2%
- growth at 10 µM (OVCAR-4 [12]): 103%
- growth at 10 µM (NCI-H522): 96.7%
- growth at 10 µM (SF-295): 94.2%
- growth at 10 µM (OVCAR-5): 107%
- growth at 10 µM (CCRF-CEM [10]): 99%
- growth at 10 µM (COLO 205): 100%
- growth at 10 µM (HT-29 [11]): 112%
- growth at 10 µM (SN12C): 103%
